# Measured values from PMC11357638 (Molecules, 2024).
# Where a chain is given by its changes, count along the chain named. Where two headings read alike, the source gives them in different places.
# Legend:
# [1] = system: TRPV3; conditions: read-out: IC50, TRPV3 inhibition; cited from earlier work
# [2] = molecular target: T1, hTRPV3 T636A mutant (Homo sapiens, UniProt Q8NET8, T636A); assay: Whole-cell patch-clamp of hTRPV3 T636A mutant in HEK293T cells; format: cell-based
# T1 construct: expressed in transfected cells; host or cells: HEK293T
# T1 sequence (Q8NET8 1-790 T636A): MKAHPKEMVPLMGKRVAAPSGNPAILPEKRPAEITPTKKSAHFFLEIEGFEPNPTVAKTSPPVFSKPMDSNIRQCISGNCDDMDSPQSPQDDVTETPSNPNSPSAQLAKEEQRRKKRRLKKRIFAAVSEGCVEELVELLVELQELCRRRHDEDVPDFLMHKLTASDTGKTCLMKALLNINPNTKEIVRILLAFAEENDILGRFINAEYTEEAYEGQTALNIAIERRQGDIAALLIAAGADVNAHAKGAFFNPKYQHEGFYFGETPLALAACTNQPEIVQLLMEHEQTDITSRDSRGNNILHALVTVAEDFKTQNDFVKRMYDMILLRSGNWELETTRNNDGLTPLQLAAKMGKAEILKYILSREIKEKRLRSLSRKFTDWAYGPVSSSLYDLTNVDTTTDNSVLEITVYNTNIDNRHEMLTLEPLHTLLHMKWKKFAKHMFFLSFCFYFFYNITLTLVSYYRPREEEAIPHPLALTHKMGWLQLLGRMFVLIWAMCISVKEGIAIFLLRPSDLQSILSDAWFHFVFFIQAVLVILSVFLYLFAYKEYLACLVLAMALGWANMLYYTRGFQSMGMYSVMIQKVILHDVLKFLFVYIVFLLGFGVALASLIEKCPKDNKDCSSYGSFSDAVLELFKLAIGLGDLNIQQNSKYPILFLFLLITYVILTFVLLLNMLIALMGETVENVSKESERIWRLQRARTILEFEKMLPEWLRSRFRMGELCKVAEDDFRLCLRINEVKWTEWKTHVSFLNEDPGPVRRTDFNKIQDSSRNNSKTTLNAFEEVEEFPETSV
# [3] = molecular target: T2, human TRPV3 (hTRPV3) channel (Homo sapiens, UniProt Q8NET8); assay: Whole-cell patch-clamp of hTRPV3 currents in transfected HEK293T cells; format: cell-based
# T2 construct: expressed in transfected cells; host or cells: HEK293T
# T2 sequence (Q8NET8 1-790): T1 sequence (Q8NET8 1-790 T636A) with A636T
# [4] = molecular target: T3, hTRPV3 single channel (Homo sapiens, UniProt Q8NET8); assay: Inside-out single-channel recording of hTRPV3; format: cell-based; conditions: −60 mV
# T3 construct: expressed in transfected cells; host or cells: HEK293T
# T3 sequence (Q8NET8 1-790): T1 sequence (Q8NET8 1-790 T636A) with A636T
# [5] = molecular target: T4, hTRPV3 I637A mutant (Homo sapiens, UniProt Q8NET8, I637A); assay: Whole-cell patch-clamp of hTRPV3 I637A mutant in HEK293T cells; format: cell-based; conditions: I637A hTRPV3, 50 μM 2-APB, +80 mV, Hill fit; read-out: IC50, inhibition of I637A mutant outward currents
# T4 construct: expressed in transfected cells; host or cells: HEK293T
# T4 sequence (Q8NET8 1-790 I637A): T1 sequence (Q8NET8 1-790 T636A) with A636T, I637A
# [6] = agonist carvacrol at 300 μM alone
compound,measurement,setting,value
O=C(/C=C/c1ccc(O)c(O)c1)O[C@@H]1[C@@H](OC(=O)/C=C/c2ccc(O)c(O)c2)C[C@@](O)(C(=O)O)C[C@@H]1O [isochlorogenic acid B],IC50,[1],0.9 ± 0.3 µM
"O=C(/C=C/c1ccc(O)c(O)c1)OCCc1ccccc1 [CAPE, caffeic acid phenethyl ester]",IC50,[2],506 ± 57.3 µM
same,IC50,[3],277 ± 41.9 µM
O=C(/C=C/c1ccc(O)c(O)c1)O[C@@H]1C[C@](O)(C(=O)O)C[C@@H](OC(=O)/C=C/c2ccc(O)c(O)c2)[C@H]1O [isochlorogenic acid A],IC50,[1],2.7 ± 1.3 µM
"NCCOB(c1ccccc1)c1ccccc1 [2-APB, 2-aminoethoxydiphenylborate]",open frequency (Freq),[4]; agonist 2-APB 50 μM alone,75.05 ± 6.63 Hz
same,single-channel conductance,[4]; agonist 2-APB 50 μM alone,161.6 ± 3.8 pS
same,single-channel open probability (POPEN),[4]; agonist 2-APB 50 μM alone,0.72 ± 0.06
"COC(=O)/C=C/c1ccc(O)c(O)c1 [CAMC, caffeic acid methyl caffeate]",IC50,"[2]; T636A hTRPV3, 50 μM 2-APB, +80 mV, Hill fit, read-out: IC50, inhibition of T636A mutant outward currents",417 ± 45.1 µM
same,IC50,[5],522 ± 43.8 µM
same,IC50,"[3]; WT hTRPV3 in HEK293T, whole-cell, activated by 50 μM 2-APB, at +80 mV, Hill fit, mean ± SD, read-out: IC50, inhibition of hTRPV3 currents",410 ± 57.9 µM
C[C@@H]1O[C@@H](O[C@@H]2[C@@H](O)[C@H](OCCc3ccc(O)c(O)c3)O[C@H](CO)[C@H]2OC(=O)/C=C/c2ccc(O)c(O)c2)[C@H](O)[C@H](O)[C@H]1O [verbascoside],IC50,[1],14.1 ± 3.3 µM
forsythiaside B,IC50,[1],6.7 ± 0.7 µM
Cc1ccc(C(C)C)cc1O [carvacrol],open frequency (Freq),[4]; [6],53.55 ± 7.27 Hz
same,single-channel conductance,[4]; [6],179.4 ± 12.8 pS
same,single-channel open probability (POPEN),[4]; [6],0.56 ± 0.05
